Measured values as given in patent publication US20180155344A1, “TRICYCLIC PIPERIDINE COMPOUNDS” (ACTELION PHARMACEUTICALS LTD, priority 2015, published 2018).

molecular target: T1, human TPH1 (Homo sapiens, UniProt P17752); experiment: biochemical
T1 sequence (P17752 1-444): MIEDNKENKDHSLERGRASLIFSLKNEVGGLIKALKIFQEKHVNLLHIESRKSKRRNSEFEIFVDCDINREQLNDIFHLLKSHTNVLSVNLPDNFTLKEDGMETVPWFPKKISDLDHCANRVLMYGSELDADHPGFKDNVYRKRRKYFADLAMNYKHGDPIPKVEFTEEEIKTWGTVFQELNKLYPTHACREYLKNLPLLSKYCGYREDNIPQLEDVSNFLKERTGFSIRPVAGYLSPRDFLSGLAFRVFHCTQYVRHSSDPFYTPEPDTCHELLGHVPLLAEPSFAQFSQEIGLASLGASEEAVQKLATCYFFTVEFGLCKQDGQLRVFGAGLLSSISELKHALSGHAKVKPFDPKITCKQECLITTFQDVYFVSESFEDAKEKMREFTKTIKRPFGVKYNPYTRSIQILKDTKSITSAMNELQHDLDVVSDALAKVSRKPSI
From the text: Biochemical In Vitro Assay Using Fluorescence Readout
To generate the enzyme, full length human TPH1 is cloned into the plasmid pET20b(+) (Novagen) and expressed in E. coli. The bacterial cells are ruptured by sonication on ice and the lysate is cleared by centrifugation. The resulting protein in the pellet is re-extracted and TPH1 is purified from the obtained lysate by affinity chromatography using a pterin cosubstrate analog immobilized to the resin of the column. The protein is further purified by size exclusion chromatography to remove protein aggregates. The activity of TPH1 is determined by using a fluorescence assay. The enzyme activity assay is carried out at 15° C. with atmosphere oxygen for the duration of 60 minutes in a volume of 64 μl. The reaction is carried out in a 0.1 M Tris-HCl buffer, adjusted to pH 7.6, containing 1 mM DTT, 0.2 mg/mL catalase, 100 μM (±)-6-methyl-5,6,7,8-tetrahydropterine dihydrochloride, 40 μM L-tryptophan, and 40-80 nM of TPH1. The reaction is started by bringing together L-tryptophan with all the other reaction substituents and stopped by quenching with perchloric acid (HClO4). The amount of 5-hydroxy-L-tryptophan produced during the enzymatic reaction is determined by fluorescence readout. Fluorescence, as determined at 540 nm when excited at 300 nm wavelength, increases proportionally to the 5-hydroxy-L-tryptophan formed. Compounds are prepared as 10 mM stock solution in DMSO, then diluted in 384-well plates using DMSO followed by a transfer of the dilutions into the assay plate. Fluorescence is measured for each well and the fluorescence at 540 nm wavelength is compared to the fluorescence of the vehicle in place of compound. […] The calculated IC50 values may fluctuate depending on the daily biochemical assay performance. Fluctuations of this kind are known to those skilled in the art.

Compound	IC50 [nM]
COc1ccc(C2c3c(nc4cc(C(F)(F)F)ccn34)CCN2C(=O)COc2ccc3c(c2C)CCN(C(=O)OC(C)(C)C)C3)c(F)c1 (stereo not drawn) [Example 3.3.4, tert-butyl 6-(2-(1-(2-fluoro-4-methoxyphenyl)-7-(trifluoromethyl)-3,4-dihydroimidazo[1,2-a:5,4-c′]dipyridin-2(1H)-yl)-2-oxoethoxy)-5-methyl-3,4-dihydroisoquinoline-2(1H)-carboxylate]	178
COc1ccc(C2c3c(nc4cc(C(F)(F)F)ccn34)CCN2C(=O)COc2cnc3ccccc3c2)cc1OC (stereo not drawn) [Example 3.1.22]	165
COc1cccc(C2c3c(nc4cc(C(F)(F)F)ccn34)CCN2C(=O)COc2ccc3ccccc3c2)c1 (stereo not drawn) [Example 3.32.1, 1-(1-(3-methoxyphenyl)-7-(trifluoromethyl)-3,4-dihydroimidazo[1,2-a:5,4-c′]dipyridin-2(1H)-yl)-2-(naphthalen-2-yloxy)ethan-1-one]	228
CN(C)C(=O)c1ccc(OC2(C(=O)N3CCc4nc5ccccn5c4C3c3ccc(Cl)cc3F)CC2)c(Cl)n1 (stereo not drawn) [Example 1.4.15, 6-chloro-5-(1-(1-(4-chloro-2-fluorophenyl)-1,2,3,4-tetrahydroimidazo[1,2-a:5,4-c′]dipyridine-2-carbonyl)cyclopropoxy)-N,N-dimethylpicolinamide]	323
O=C(COc1cccnc1Cl)N1CCc2nc3ccccn3c2C1c1ccc(Cl)cc1F (stereo not drawn) [Example 1.4.3, 1-(1-(4-chloro-2-fluorophenyl)-3,4-dihydroimidazo[1,2-a:5,4-c′]dipyridin-2(1H)-yl)-2-((2-chloropyridin-3-yl)oxy)ethan-1-one]	271
CCc1nc(C)ccc1OCC(=O)N1CCc2nc3cccnn3c2C1c1ncc(C2CC2)cc1F (stereo not drawn) [Example 16.2.2, 1-(9-(5-cyclopropyl-3-fluoropyridin-2-yl)-6,9-dihydropyrido[4′,3′:4,5]imidazo[1,2-b]pyridazin-8(7H)-yl)-2-((2-ethyl-6-methylpyridin-3-yl)oxy)ethan-1-one]	128
COc1ccc(C2c3c(nc4ccccn34)CCN2C(=O)COc2ccc3ccccc3c2)cc1O (stereo not drawn) [Example 1.9.1, 1-(1-(3-hydroxy-4-methoxyphenyl)-3,4-dihydroimidazo[1,2-a:5,4-c′]dipyridin-2(1H)-yl)-2-(naphthalen-2-yloxy)ethan-1-one]	230
O=C(COc1ccc(N2CCOCC2)cc1Cl)N1CCc2nc3cc(C(F)(F)F)ccn3c2C1c1ncccc1F (stereo not drawn) [Example 3.21.3, 2-(2-chloro-4-morpholinophenoxy)-1-(1-(3-fluoropyridin-2-yl)-7-(trifluoromethyl)-3,4-dihydroimidazo[1,2-a:5,4-c′]dipyridin-2(1H)-yl)ethan-1-one]	88
CN(C)Cc1csc(C2c3c(nc4ccccn34)CCN2C(=O)COc2ccc(N3CCOCC3)nc2Cl)c1 (stereo not drawn) [Example 1.7.1, 2-((2-chloro-6-morpholinopyridin-3-yl)oxy)-1-(1-(4-((dimethylamino)methyl)thiophen-2-yl)-3,4-dihydroimidazo[1,2-a:5,4-c′]dipyridin-2(1H)-yl)ethan-1-one]	101
COc1ccc(C2c3c(nc4cc(C(F)(F)F)ccn34)CCN2C(=O)COc2cnc3c(c2)ncn3C)cc1OC (stereo not drawn) [Example 3.1.23]	382
O=C(COc1ccc2ccccc2c1)N1CCc2nc3cc(C(F)(F)F)ccn3c2C1c1ccc(F)c(F)c1 (stereo not drawn) [Example 3.34.1, 1-(1-(3,4-difluorophenyl)-7-(trifluoromethyl)-3,4-dihydroimidazo[1,2-a:5,4-c′]dipyridin-2(1H)-yl)-2-(naphthalen-2-yloxy)ethan-1-one]	486
COc1ccc(C2c3c(nc4cc(Cl)ccn34)CCN2C(=O)COc2nn(C)c(C(F)(F)F)c2Cl)c(F)c1 (stereo not drawn) [Example 2.3.3, 1-(7-chloro-1-(2-fluoro-4-methoxyphenyl)-3,4-dihydroimidazo[1,2-a:5,4-c′]dipyridin-2(1H)-yl)-2-((4-chloro-1-methyl-5-(trifluoromethyl)-1H-pyrazol-3-yl)oxy)ethan-1-one]	208

The next compounds have a lower IC50 than those just listed; values first:

IC50 [nM]	Compound
40	COCc1ccc(C2c3c(nc4ccccn34)CCN2C(=O)COc2ccc(NS(C)(=O)=O)nc2Cl)c(F)c1 (stereo not drawn) [Example 1.18.2, N-(6-chloro-5-(2-(1-(2-fluoro-4-(methoxymethyl)phenyl)-3,4-dihydroimidazo[1,2-a:5,4-c′]dipyridin-2(1H)-yl)-2-oxoethoxy)pyridin-2-yl)methanesulfonamide]
36	COc1ccc(C2c3c(nc4cc(C(F)(F)F)ccn34)CCN2C(=O)COc2ccc(C(F)(F)F)cc2Cl)cc1OC (stereo not drawn) [Example 3.1.3, 2-(2-chloro-4-(trifluoromethyl)phenoxy)-1-(1-(3,4-dimethoxyphenyl)-7-(trifluoromethyl)-3,4-dihydroimidazo[1,2-a:5,4-c′]dipyridin-2(1H)-yl)ethan-1-one]
8	COc1ccc(C2c3c(nc4cc(Cl)ccn34)CCN2C(=O)COc2ccc(CN3CCOCC3)cc2Cl)c(F)c1 (stereo not drawn) [Example 2.3.1, 1-(7-chloro-1-(2-fluoro-4-methoxyphenyl)-3,4-dihydroimidazo[1,2-a:5,4-c′]dipyridin-2(1H)-yl)-2-(2-chloro-4-(morpholinomethyl)phenoxy)ethan-1-one]
9	O=C(COc1ccc(N2CCOCC2)cc1Cl)N1CCc2nc3ccccn3c2C1c1ccc(C2CC2)cc1F (stereo not drawn) [Example 1.5.1, 2-(2-chloro-4-morpholinophenoxy)-1-(1-(4-cyclopropyl-2-fluorophenyl)-3,4-dihydroimidazo[1,2-a:5,4-c′]dipyridin-2(1H)-yl)ethan-1-one]
32	COc1ccc(C2c3c(nc4cc(C)ccn34)CCN2C(=O)COc2ccc(Cl)cc2Cl)cc1OC (stereo not drawn) [Example 4.1.1, 2-(2,4-dichlorophenoxy)-1-(1-(3,4-dimethoxyphenyl)-7-methyl-3,4-dihydroimidazo[1,2-a:5,4-c′]dipyridin-2(1H)-yl)ethan-1-one]
38	COCc1ccc(C2c3c(nc4ccccn34)CCN2C(=O)COc2ccc(C(=O)NC3CC3)nc2Cl)c(F)c1 (stereo not drawn) [Example 1.18.1, 6-chloro-N-cyclopropyl-5-(2-(1-(2-fluoro-4-(methoxymethyl)phenyl)-3,4-dihydroimidazo[1,2-a:5,4-c′]dipyridin-2(1H)-yl)-2-oxoethoxy)picolinamide]
80	O=C(NC1CC1)c1ccc(OCC(=O)N2CCc3nc4ccccn4c3C2c2ccc(OCCO)cc2F)c(Cl)n1 (stereo not drawn) [Example 1.22.1, 6-chloro-N-cyclopropyl-5-(2-(1-(2-fluoro-4-(2-hydroxyethoxy)phenyl)-3,4-dihydroimidazo[1,2-a:5,4-c′]dipyridin-2(1H)-yl)-2-oxoethoxy)picolinamide]
30	COc1ccc(C2c3c(nc4cc(Cl)ccn34)CCN2C(=O)COc2ccc3ccccc3c2)cc1OC[C@@H](O)CO (stereo partly drawn) [Example 2.9.1, 1-(7-chloro-1-(3-((S)-2,3-dihydroxypropoxy)-4-methoxyphenyl)-3,4-dihydroimidazo[1,2-a:5,4-c′]dipyridin-2(1H)-yl)-2-(naphthalen-2-yloxy)ethan-1-one]
23	O=C(COc1ccc(CN2CCOCC2)cc1Cl)N1CCc2nc3cc(C(F)(F)F)ccn3c2C1c1nc2ccccc2s1 (stereo not drawn) [Example 3.44.2, 1-(1-(benzo[d]thiazol-2-yl)-7-(trifluoromethyl)-3,4-dihydroimidazo[1,2-a:5,4-c′]dipyridin-2(1H)-yl)-2-(2-chloro-4-(morpholinomethyl)phenoxy)ethan-1-one]
54	COCCOc1ccc(C2c3c(nc4ccccn34)CCN2C(=O)COc2ccc(C(=O)NC3CC3)nc2Cl)c(F)c1 (stereo not drawn) [Example 1.21.1, 6-chloro-N-cyclopropyl-5-(2-(1-(2-fluoro-4-(2-methoxyethoxy)phenyl)-3,4-dihydroimidazo[1,2-a:5,4-c′]dipyridin-2(1H)-yl)-2-oxoethoxy)picolinamide]
33	Cc1ccc(C2c3c(nc4cc(C(F)(F)F)ccn34)CCN2C(=O)COc2nn(C)c(C(F)(F)F)c2Cl)c(F)c1 (stereo not drawn) [Example 3.22.3, 2-((4-chloro-1-methyl-5-(trifluoromethyl)-1H-pyrazol-3-yl)oxy)-1-(1-(2-fluoro-4-methylphenyl)-7-(trifluoromethyl)-3,4-dihydroimidazo[1,2-a:5,4-c′]dipyridin-2(1H)-yl)ethan-1-one]
26	Cc1ccc(C2c3c(nc4cc(C(F)(F)F)ccn34)CCN2C(=O)COc2ccc3ccccc3c2)cn1 (stereo not drawn) [Example 3.38.1, 1-(1-(6-methylpyridin-3-yl)-7-(trifluoromethyl)-3,4-dihydroimidazo[1,2-a:5,4-c′]dipyridin-2(1H)-yl)-2-(naphthalen-2-yloxy)ethan-1-one]
